This note sets out measurements from ChEMBL document CHEMBL6121014, “Novel α-mangostin derivatives as promising antiviral agents: Isolation, synthesis, and evaluation against chikungunya virus” (Eur J Med Chem, 2025).

The test system of series [1] is Chikungunya virus. The series can be described thus: Antiviral activity against CHIKV infected in green monkey Vero cells assessed as reduction in viral titer at 1.56 uM pretreated the cells with viral infection for 1 hr followed by compound addition and measured after 24 hrs by Foci forming unit assay (reference value: 8.55 log10FFU/ml). The series is classed as functional.

The test system of series [2] is Chikungunya virus. The series can be described thus: Antiviral activity against CHIKV infected in green monkey Vero cells assessed as reduction in viral titer pretreated the cells with viral infection for 1 hr followed by compound addition and measured after 24 hrs by Foci forming unit assay. The class given is functional, organism-based.
A further series has as its system Vero. The series can be described thus: (§1) Cytotoxicity against green monkey Vero cells assessed as reduction in cell viability at 24 to 48 hrs by MTT assay. The class given is toxicity, cell-based. Further details: Activity: concentration or dose not given beside the values. The following applies: chlorocebus sabaeus, vero; time 24-48 hrs. For orientation: Formazan colour is commonly taken as a measure of viable cells.

Series [3] is described as follows: as §1. Conditions: chlorocebus sabaeus, Vero cells; time 24-48 hrs. Further details: Activity: concentration or dose not given beside the values. The class given is toxicity, cell-based.
The nature of series [4]: Selectivity ratio of IC50 for antiviral activity against CHIKV infected in green monkey Vero cells assessed as reduction in viral titer pretreated the cells with viral infection for 1 hr followed by compound addition and measured after 24 hrs by Foci forming unit assay to CC50 for cytotoxicity against green monkey Vero cells. The series is classed as toxicity, cell-based.

For series [5], the system named is Chikungunya virus. Briefly: Antiviral activity against CHIKV infected in green monkey Vero cells assessed as reduction in viral titer at 3.125 uM pretreated the cells with viral infection for 1 hr followed by compound addition and measured after 24 hrs by Foci forming unit assay (reference value: 8.55 log10FFU/ml). The series is classed as functional.
For series [6], the system named is Chikungunya virus. The series can be described thus: Antiviral activity against CHIKV infected in green monkey Vero cells assessed as inhibition of infectious virus preincubated the cells for 45 mins followed by compound addition and measured after 5 to 6 hrs post infection by time of addition assay. The series is classed as functional. Further details: scale not given: the % may be the effect or the level left. The following applies: time 5-6 hrs.

Series [7] concerns Chikungunya virus. The series can be described thus: Antiviral activity against CHIKV infected in green monkey Vero cells assessed as inhibition of infectious virus preincubated the cells for 45 mins followed by compound addition and measured after 1 to 6 hrs post infection by time of addition assay. The series is classed as functional, organism-based. The following applies: time 1-6 hrs.

The test system of series [8] is Chikungunya virus. The series can be described thus: Antiviral activity against CHIKV infected in green monkey Vero cells assessed as inhibition of viral entry by entry assay. The class given is functional, organism-based.
Series [9] concerns Chikungunya virus. The series can be described thus: Antiviral activity against CHIKV infected in green monkey Vero cells assessed as inhibition of viral post entry by entry bypass assay. The class given is functional, organism-based.
Series [10] relates to Chikungunya virus. Briefly: Antiviral activity against CHIKV infected in green monkey Vero cells assessed as reduction in viral titer pretreated with compound for 24 hrs followed by viral infection by Foci forming unit assay. The series is classed as functional, organism-based.
Series [11] deals with Chikungunya virus. Briefly: Antiviral activity against CHIKV infected in green monkey Vero cells assessed as reduction in viral titer at 12.5 to 50 uM pretreated the cells with viral infection for 1 hr followed by compound addition and measured after 24 hrs by Foci forming unit assay (reference value: 8.55 log10FFU/ml). The series is classed as functional. Conditions: dose 12.5-50 µM.

Series [12] relates to Chikungunya virus. Briefly: Antiviral activity against CHIKV infected in green monkey Vero cells assessed as reduction in viral titer at 25 uM pretreated with compound for 24 hrs followed by viral infection by foci forming unit assay (reference value: 8.48 log10FFU/ml). The series is classed as functional.
The test system of series [13] is Chikungunya virus. The series can be described thus: Antiviral activity against CHIKV infected in green monkey Vero cells assessed as reduction in viral titer at 50 uM pretreated with compound for 24 hrs followed by viral infection by foci forming unit assay (reference value: 8.48 log10FFU/ml). The series is classed as functional.
Series [14] relates to Chikungunya virus. Briefly: Antiviral activity against CHIKV infected in green monkey Vero cells assessed as reduction in viral titer at 12.5 to 25 uM pretreated the cells with viral infection for 1 hr followed by compound addition and measured after 24 hrs by Foci forming unit assay (reference value: 8.55 log10FFU/ml). The series is classed as functional. The following applies: dose 12.5-25 µM.

Series [15] relates to Chikungunya virus. Briefly: Antiviral activity against CHIKV infected in green monkey Vero cells assessed as reduction in viral titer at 25 uM pretreated the cells with viral infection for 1 hr followed by compound addition and measured after 24 hrs by Foci forming unit assay (reference value: 8.55 log10FFU/ml). The series is classed as functional.

pIC50: −log10 of the molar value. The source made the active and inactive calls. No cut-off for these calls is given here.

For `COc1c(O)cc2oc3cc4c(c(O)c3c(=O)c2c1CC=C(C)C)C=CC(C)(C)O4` [MANGOSTANIN], the Activity in the series with Chikungunya virus [1] is on record as 7.47 log10FFU/ml; in the series on Vero, over 90%; in the series with Chikungunya virus [5], 6.42 log10FFU/ml. In addition, the negative-log IC50 (pIC50) (as a rule, the negative decadic logarithm of the IC50, by convention in mol/L) with Chikungunya virus [2] is 5.99. Further, in series [3], the CC50 (as a rule, the concentration giving 50% cytotoxicity) is 6.68 µM. Further, the selectivity ratio at 24 h in [4] came to 5.55.

Turning to `COc1c(OCc2cn(-c3ccc(Cl)cc3)nn2)cc2oc3cc4c(c(O)c3c(=O)c2c1CC=C(C)C)C=CC(C)(C)O4`, the Activity in the series with Chikungunya virus [6] and in the series on Vero was over 90% in each case. For the same compound, the result in the series on Chikungunya virus [7], with Chikungunya virus [8] and with Chikungunya virus [9] was Active. In the series on Chikungunya virus [2], the pIC50 is 6.02. The CC50 in series [3] came to 59.7 µM. For the same compound, in series [4], the selectivity ratio at 24 h stood at 63.1.

For `COc1c(OCc2cn(-c3cc(Cl)ccc3Cl)nn2)cc2oc3cc4c(c(O)c3c(=O)c2c1CC=C(C)C)C=CC(C)(C)O4`, the Activity with Chikungunya virus [6] was over 90%; with Chikungunya virus [8], “Active; Largest Inhibitory Effect Was Observed”; in the series with Vero, over 90%. For the same compound, in the series on Chikungunya virus [7], the result was Active. For the same compound, the pIC50 in the series on Chikungunya virus [2] is 5.71. Also, the CC50 in [3] stood at 148 µM. Also, the selectivity ratio at 24 h in [4] stood at 76.

`COc1c(OCC(=O)N2CCN(S(=O)(=O)c3ccc(F)cc3)CC2)cc2oc3cc4c(c(O)c3c(=O)c2c1CC=C(C)C)C=CC(C)(C)O4`: the negative logarithm of the IC50 (pIC50) in the series on Chikungunya virus [10] is 5.11; in the series with Chikungunya virus [2] it was 4.58. Further, the Activity in the series on Chikungunya virus [11] was 7.37 log10FFU/ml; in the series with Chikungunya virus [12], 7.21 log10FFU/ml; in the series with Chikungunya virus [13] it was 7.13 log10FFU/ml; in the series with Vero, over 90%. Besides, in series [3], the CC50 is 191 µM. Moreover, the selectivity ratio at 24 h in [4] turned out to be 7.3.

Regarding `COc1c(OCC(=O)N2CCN(S(=O)(=O)c3ccc(C(F)(F)F)cc3)CC2)cc2oc3cc4c(c(O)c3c(=O)c2c1CC=C(C)C)C=CC(C)(C)O4`, the pIC50 with Chikungunya virus [10] is 5.16; in the series with Chikungunya virus [2], 5.19. In addition, the Activity is recorded as about 7.29 log10FFU/ml in the series on Chikungunya virus [12], about 7.29 log10FFU/ml with Chikungunya virus [13], over 90% in the series on Vero and 7.4 log10FFU/ml in the series on Chikungunya virus [14]. Also, the CC50 in series [3] was 160 µM. For the same compound, the selectivity ratio at 24 h in series [4] is 25.

Regarding `COc1c(OCC(=O)N2CCN(S(=O)(=O)c3ccc(Cl)cc3)CC2)cc2oc3cc4c(c(O)c3c(=O)c2c1CC=C(C)C)C=CC(C)(C)O4`, the Activity with Chikungunya virus [15] was 7.39 log10FFU/ml; in the series on Vero it was over 90%. Besides, in the series on Chikungunya virus [2], the pIC50 is 4.95. Besides, in [3], the CC50 was found to be 160 µM. For the same compound, in series [4], the selectivity ratio at 24 h was determined as 14.3.
